In patent US6767715B2, “Nitroso compounds and their use as spin traps” (Randox Laboratories Ltd., priority 2000, dated 2004):
“Also recorded” adds a separate entry of the source.

Tests used:
[1] = Spin trapping of SO3− (horseradish peroxidase/H2O2/sulphite), ESR detection; settings: for optimal concentration of spin trap: 25 min incubation at room temperature; for signal/marker ratio: at optimal concentration (DBNBS 17.72 mM, DCNBS 20-25 mM)
Procedure: (§1) ESR spectra were obtained using a prototype spectrometer (Jeol (U.K) Ltd., Welwyn Garden City, England) equipped with a TE011 cylindrical cavity. Samples were analysed at room temperature in a WG-LC-11 quartz flat cell (Wilmad-Glass, Buena, N.J.). In general the instrument parameters were: microwave frequency 9.2 GHz, microwave power 4 mW, centre field (CF) 336.7 mT, sweep width (SW) ±5 mT, number of data points 4095, modulation frequency 100 kHz. For the spin traps reacted with horseradish peroxidase/H2O2/sulphite: sweep time 200 s, time constraint 0.1 s, modulation width 0.05. For the spin traps reacted with the oxidant and NO; sweep time 150 s, time constraint 0.3 s, modulation width 0.2 mT. A JEOL ES-DM1 digital manganese oxide marker (0.03 mm of the glass tube inserted per unit on the dial setting) with a dial setting of 500 was used to ensure the reproducibility between samples and to identify the position of the signals in the microwave field.
Solutions of the spin traps DBNBS, DCNBS and DMNBS (40 mM) (25, 50, […], 110.75, 125 and 156.25 μl for final concentrations of 4, 8, 14.68, 17.72, 20 and 25 mM in PBS) were added to 8 μl horseradish peroxidase (91 μM in PBS), 8 μl K2SO3 (100 mM in water) and 12.5 μl H2O2 (5 mM in PBS). The difference in the volume comprised PBS (pH 7.4). The final volume of the reaction mixture was 250 μl. The reaction mixture was mixed thoroughly and analysed by ESR spectroscopy after 25 min incubation at room temperature. Controls were run using individual reactants as well as the reaction mixture above in the absence of the spin traps.

[2] = Reaction of spin traps with oxidant in CAPD dialysate, ESR detection; settings: oxidant system; for final nominal concentration at which spin trap reached an excess: 60 μl dialysate, 25 min at room temperature; for signal/marker ratio: DBNBS at 1.2 mM, DCNBS at 2.5 mM
Procedure: as §1
Dialysate from a patient with renal failure on Continuous Ambulatory Peritoneal Dialysis (CAPD) was used for this study. The dialysate was collected when the dialysate bag was changed.
Solutions of 10 mM DBNBS and DCNBS (5, 8, 12, 25 and 30 μl for final concentrations of 0.5, 0.8, 1.2, 2.5 and 3.0 mM) were added to 60 μl of the dialysate. The difference in volume comprised PBS. The reaction mixture was mixed thoroughly and analysed by ESR spectroscopy after 25 min incubation at room temperature.

[3] = Reaction of spin traps with nitric oxide, ESR detection; settings: for spin trap concentration giving maximum signal intensity / plateau / time at which reaction with NO reaches a maximum: NO 1 mM; for spin trap concentration giving maximum signal intensity / plateau: DBNBS incubated 26 hr, DCNBS 22 hr; for time at which reaction with NO reaches a maximum / limit of detection for NO (S/N ratio equals 3) / limit of quantitation for NO (S/N ratio equals 10): spin trap 0.15M; for time at which reaction with NO reaches a maximum: Tris-HCl pH 7.4; for limit of detection for NO (S/N ratio equals 3) / limit of quantitation for NO (S/N ratio equals 10): DBNBS 50 hr, DCNBS 20 hr, linear part of curve 0 to 10 μM
Procedure: as §1
The apparatus shown in FIG. 1 was flushed with nitrogen for 15 min. The vacutainer containing deionised water (4 ml) was then connected to the system and flushed with nitrogen for a further 15 min, to remove any oxygen present in the system, and therefore to prevent the formation of nitrogen dioxide. The NO gas was bubbled through the deionised water via the system for 45 min. The small amount of nitrogen dioxide present in the pressurised NO container was removed by bubbling through two bottles of 5M NaOH. The gas was then bubbled through a scrubbing bottle containing deionised water to remove any alkaline aerosol contamination. Any excess of NO after the deionised water step was bubbled through a scrubbing bottle containing 1M potassium permanganate/1M NaOH to prevent excess NO escaping from the fume hood. The concentration of NO in the resulting NO-saturated water was taken to be 2.0 mM.
Samples of DBNBS, DCNBS and DMNBS were weighed into vacutainers and evacuated. Tris-HCl buffer, 0.01M, pH 7.4, was deoxygenated by bubbling with nitrogen gas for 15 min. The deoxygenated buffer was added to the spin traps by a gas tight syringe to give a final spin trap concentration of 0.30M. The spin trap solution was briefly flushed with nitrogen and was then ready for use.
NO-saturated water (1 ml) was added to 1 ml of each of the spin trap solutions (DBNBS, DCNBS and DMNBS). The final concentrations of the spin traps were 0.15M and NO 1 mM. Parallel blanks were carried out by adding 1 ml of deoxygenated water to the spin trap solutions. At each time point samples were taken from test solutions and blanks for ESR spectroscopic analysis and the blank was substracted from the spectra.
The spin trap solutions were prepared as above to give final concentrations of 0.05, 0.1, 0.15, 0.2 and 0.25M in the reaction mixtures and the parallel blanks. The saturated NO solution (0.5 ml, final concentration 1 mM) was added to the test solutions and the deoxygenated water (0.5 ml) was added to the blanks. The reaction mixtures with DBNBS were incubated for 26 hr. while those with DCNBS were incubated for 22 hr. before analysis by ESR spectroscopy. The blanks were subtracted from their parallel test spectra respectively.
The concentration of NO in NO saturated water is taken to be 2.0 mM. This NO solution was diluted with deoxygenated water to give final concentrations in the reaction mixture of 0, 0.25, 0.5, 1, 2.5, 5, 10, 50 and 100 μM. The NO solution was added to DBNBS and to DCNBS to give a final spin trap concentration of 0.15M. The blank (or zero point) was ran by adding 0.5 ml of deoxygenated deionised water to the spin trap solutions. The reaction mixture containing DBNBS was incubated for 50 hr, and that containing DCNBS was incubated for 20 hr. The signal to noise ratio was calculated from each spectrum. All withdrawals and additions of solutions were carried out using a gas-tight syringe.

[4] = Solubility of the spin trap in aqueous systems; format: physicochemical; settings: Sodium Salt

optimal concentration of spin trap ([1]; SO3− system) | signal/marker ratio ([1]; SO3− system) | sensitivity relative to DBNBS ([1]; SO3− system, at optimal concentrations) | ESR signal height for SO3− adduct relative to DBNBS-d2-15N ([1]; SO3− generated from HRP, H2O2, SO3 2−) | Structure (SMILES) | final nominal concentration at which spin trap reached an excess [2] | signal/marker ratio [2] | spin trap concentration giving maximum signal intensity / plateau [3] | time at which reaction with NO reaches a maximum [3] | limit of detection for NO (S/N ratio equals 3) [3] | limit of quantitation for NO (S/N ratio equals 10) [3] | solubility compared with DBNBS [4]
17.72 mM | 3.33 |  |  | O=Nc1c(Br)cc(S(=O)(=O)[O-])cc1Br.[Na+] [DBNBS, 3,5-dibromo-4-nitrosobenzenesulphonate, sodium salt, reference compound] | ca. 1.2 mM | 0.516 | 0.15 M | approximately 50 hr | 0.23 µM | 0.92 µM | 
20 to 25 mM | 10.62 | 3 times |  | O=Nc1c(Cl)cc(S(=O)(=O)[O-])cc1Cl.[Na+] [DCNBS, 3,5-Dichloro-4-nitrosobenzenesulphonate, Sodium Salt] | 2.5 mM | 0.521 | 0.05 to 0.40 M | 20 to 24 h | 4.06 µM | 17.30 µM | improved solubility; also recorded: more soluble than DBNBS
 |  |  | more than three times | Cc1cc(S(=O)(=O)[O-])cc(C)c1N=O.[Na+] [DMNBS, 3,5-Dimethyl-4-nitrosobenzenesulphonate, Sodium Salt] |  |  |  | 24 to 28 h |  |  | 
